Data taken from patent US10328053B2 (Gilead Sciences, Inc., priority 2016, dated 2019).

Assays:
[1] = Hepatic Stability Assay (in vitro half-life method); assay type: in vitro ADME; set-up: dose or concentration left out as unconfirmed; settings: pooled cryopreserved hepatocytes, 37° C., 1×10^6 cells/mL, 0-6 hours, LC-MS/MS, 39.5 hours is the maximum detectable half life, read-out: t½ (converted)
In short: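 Pooled cryopreserved hepatocytes (1×10^6 cells/mL) incubated with compound at […] test concentration, 37° C.; samples at 0, 1, 3 and 6 h quantified by LC-MS/MS. Half-life from rate of compound disappearance, scaled to predicted hepatic clearance via well-stirred model.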

[2] = system: HBV AD38 viral particles in HepG2 cell line overexpressing NTCP; test: HBV DNA Quantification Assay; assay type: cell-based; settings: Hepatitis B virus, HepG2, 120 h, HBV-infected HepG2-NTCP cells, 5 days incubation, HBV DNA in culture supernatant (QuantiGene 2.0); geometric mean of a minimum of four determinations
Protocol: HBV DNA Quantification Assay
A HepG2 cell line overexpressing the HBV virus attachment receptor sodium-taurocholate cotransporting polypeptide (NTCP) was grown to confluency in DMEM growth medium, Dulbecco's Modified Eagle Medium without sodium pyruvate (Life Technologies, Rockville, Md.) supplemented with 10% FBS (Thermo Scientific, Waltham, Md.), 1% penicillin/streptomycin (Life Technologies, Rockville, Md.) and 2 mM L-glutamine (Life Technologies, Rockville, Md.) in T175 flasks. Cells were infected with HBV AD38 viral particles (Texcell, Frederick, USA) at 4000 genome equivalents per cell. After allowing viral infection to take place for 4 days, the infected cells were harvested from the flasks by trypsinization, washed twice with OptiMEM (Life Technologies, Rockville, Md.) and re-suspended in DMEM containing 2% FBS and 1% DMSO at a density of 0.25E6 cells/ml. Infected cells were seeded on 384 well collagen coated plates (Greiner, Austria) at a density of 20,000 cells/well containing serially diluted compounds of the present disclosure or DMSO (0.5%) in a final volume of 80 μl. The assay plates were incubated for a period of 5 days and the antiviral activity of the test compounds were assayed by detecting the presence of HBV DNA in the culture supernatant using the QuantiGene™ 2.0 nucleic acid quantification kit (Affymetrix, Santa Clara, Calif.).
The culture supernatant was harvested and treated with lysis buffer containing Proteinase K (Affymetrix, Santa Clara, Calif.). The supernatant was incubated with HBV viral DNA specific probes (Affymetrix, Santa Clara, Calif.) for 30 minutes at 55° C. This was followed by addition of 0.2M NaOH for 30 minutes at room temperature to denature the DNA, followed by addition of Neutralization buffer (Affymetrix, Santa Clara, Calif.). The resulting lysed and neutralized supernatant was then added to QuantiGene™ 2.0 384 well plates coated with capture oligonucleotides and incubated overnight at 55° C. The HBV specific probe set consists of Capture Extender oligonucleotides (CE's) and blocking probes. Following the overnight incubation, the wells were incubated for one hour sequentially with a Pre-Amplifier, Amplifier and Labeled probes conjugated to alkaline phosphatase with a wash step between incubations. After the final wash step, the alkaline phosphatase substrate (Luminol APS5) was added and the resulting luminescence signal was read in an EnVision Multilabel Plate Reader (PerkinElmer, Santa Clara, Calif.). The EC50 values were calculated from the fit of the dose—response curves to a four-parameter equation. All EC50 values represent geometric mean values of a minimum of four determinations.

Structure (SMILES) | half-life [1] [h] | EC50 [2] [nM]
Cc1c(C(=O)C(=O)NC2(c3cnn[nH]3)CC2)c2n(c1C(=O)Nc1ccc(F)c(Cl)c1F)CCC2 [Example 84, 7-(2-((1-(1H-1,2,3-triazol-5-yl)cyclopropyl)amino)-2-oxoacetyl)-N-(3-chloro-2,4-difluorophenyl)-6-methyl-2,3-dihydro-1H-pyrrolizine-5-carboxamide] | 10.7 | 31
Cc1c(C(=O)C(=O)NC2(C(=O)N3CCC34COC4)CC(F)(F)C2)c2n(c1C(=O)Nc1ccc(F)c(Cl)c1)CCC2 [Example 11, N-(3-chloro-4-fluorophenyl)-7-(2-((3,3-difluoro-1-(6-oxa-1-azaspiro[3.3]heptane-1-carbonyl)cyclobutyl)amino)-2-oxoacetyl)-6-methyl-2,3-dihydro-1H-pyrrolizine-5-carboxamide] | 0.7 | 7.7
C#CC1(NC(=O)C(=O)c2c(C)c(C(=O)Nc3ccc(F)c(Cl)c3)n3c2CCC3)CC1 [Example 94, N-(3-chloro-4-fluorophenyl)-7-(2-((1-ethynylcyclopropyl)amino)-2-oxoacetyl)-6-methyl-2,3-dihydro-1H-pyrrolizine-5-carboxamide] | 2.9 | 5.8
Cc1c(C(=O)C(=O)NC2(c3c[nH]nn3)COC2)c2n(c1C(=O)Nc1ccc(F)c(Cl)c1)CCC2 [Example 88, 7-(2-((3-(1H-1,2,3-triazol-4-yl)oxetan-3-yl)amino)-2-oxoacetyl)-N-(3-chloro-4-fluorophenyl)-6-methyl-2,3-dihydro-1H-pyrrolizine-5-carboxamide] | 9.9 | 8.7
Cc1c(C(=O)C(=O)NC2(c3ccccc3)CC2)c2n(c1C(=O)Nc1cc(F)c(F)c(F)c1)CCC2 [Example 67, 6-methyl-7-(2-oxo-2-((1-phenylcyclopropyl)amino)acetyl)-N-(3,4,5-trifluorophenyl)-2,3-dihydro-1H-pyrrolizine-5-carboxamide] | – | 6.5
Cc1c(C(=O)C(=O)NC2(c3c[nH]nn3)CC(F)(F)C2)c2n(c1C(=O)Nc1ccnc(C(F)F)c1F)[C@@H]1C[C@@H]1C2 [Example 80, (1aR,6aR)-5-(2-((3,3-difluoro-1-(1H-1,2,3-triazol-4-yl)cyclobutyl)amino)-2-oxoacetyl)-N-(2-(difluoromethyl)-3-fluoropyridin-4-yl)-4-methyl-1,1a,6,6a-tetrahydrocyclopropa[b]pyrrolizine-3-carboxamide] | 6.3 | 8.7
CNC(=O)C1(NC(=O)C(=O)c2c(C)c(C(=O)Nc3ccc(F)c(Cl)c3)n3c2C[C@@H](O)C3)CC(F)(F)C1 [Example 16, (R)—N-(3-chloro-4-fluorophenyl)-7-(2-((3,3-difluoro-1-(methylcarbamoyl)cyclobutyl)amino)-2-oxoacetyl)-2-hydroxy-6-methyl-2,3-dihydro-1H-pyrrolizine-5-carboxamide] | 11.8 | 456
Cc1c(C(=O)C(=O)NC2(c3c[nH]nn3)CC(F)(F)C2)c2n(c1C(=O)Nc1ccc(F)c(C(F)F)c1)CCC2 [Example 89, 7-(2-((3,3-difluoro-1-(1H-1,2,3-triazol-4-yl)cyclobutyl)amino)-2-oxoacetyl)-N-(3-(difluoromethyl)-4-fluorophenyl)-6-methyl-2,3-dihydro-1H-pyrrolizine-5-carboxamide] | 10.3 | 2.9
CNC(=O)C1(NC(=O)C(=O)c2c(C)c(C(=O)Nc3ccnc(C(F)F)c3F)n3c2CCC3)CC(F)(F)C1 [Example 147, 7-(2-((3,3-difluoro-1-(methylcarbamoyl)cyclobutyl)amino)-2-oxoacetyl)-N-(2-(difluoromethyl)-3-fluoropyridin-4-yl)-6-methyl-2,3-dihydro-1H-pyrrolizine-5-carboxamide] | 24.8 | 103
Cc1c(C(=O)C(=O)NC2(c3c[nH]nn3)CC(F)(F)C2)c2n(c1C(=O)Nc1ccc(F)c(F)c1)CCC2 [Example 31, 7-(2-((3,3-difluoro-1-(1H-1,2,3-triazol-4-yl)cyclobutyl)amino)-2-oxoacetyl)-N-(3,4-difluorophenyl)-6-methyl-2,3-dihydro-1H-pyrrolizine-5-carboxamide] | 8.6 | 3.2
Cc1c(C(=O)C(=O)NC2(c3nncs3)CC2)c2n(c1C(=O)Nc1ccnc(C(F)F)c1F)[C@@H]1C[C@@H]1C2 [Example 68, (1aR,6aR)-5-(2-((1-(1,3,4-thiadiazol-2-yl)cyclopropyl)amino)-2-oxoacetyl)-N-(2-(difluoromethyl)-3-fluoropyridin-4-yl)-4-methyl-1,1a,6,6a-tetrahydrocyclopropa[b]pyrrolizine-3-carboxamide] | 5.2 | 110
Cc1c(C(=O)C(=O)NC2(c3c[nH]nn3)CC2)c2n(c1C(=O)Nc1ccc(F)c(Cl)c1)CCC2 [Example 6, 7-(2-((1-(1H-1,2,3-Triazol-4-yl)cyclopropyl)amino)-2-oxoacetyl)-N-(3-chloro-4-fluorophenyl)-6-methyl-2,3-dihydro-1H-pyrrolizine-5-carboxamide] | 8.2 | 11.1
Cc1c(C(=O)C(=O)NC2(c3c[nH]nn3)COC2)c2n(c1C(=O)Nc1ccc(F)c(F)c1)[C@@H]1C[C@@H]1C2 [Example 87, (1aR,6aR)-5-(2-((3-(1H-1,2,3-triazol-4-yl)oxetan-3-yl)amino)-2-oxoacetyl)-N-(3,4-difluorophenyl)-4-methyl-1,1a,6,6a-tetrahydrocyclopropa[b]pyrrolizine-3-carboxamide] | 6.3 | 12.5
CNC(=O)C(C)(C)NC(=O)C(=O)c1c(C)c(C(=O)Nc2ccc(F)c(C(F)F)c2)n2c1CCC2 [Example 114, N-(3-(difluoromethyl)-4-fluorophenyl)-6-methyl-7-(2-((2-methyl-1-(methylamino)-1-oxopropan-2-yl)amino)-2-oxoacetyl)-2,3-dihydro-1H-pyrrolizine-5-carboxamide] | – | 156
CNC(=O)C(C)(C)NC(=O)C(=O)c1c(C)c(C(=O)Nc2ccc(F)c(Cl)c2)n2c1CCC2 [Example 82, N-(3-chloro-4-fluorophenyl)-6-methyl-7-(2-((2-methyl-1-(methylamino)-1-oxopropan-2-yl)amino)-2-oxoacetyl)-2,3-dihydro-1H-pyrrolizine-5-carboxamide] | – | 133
Cc1c(C(=O)C(=O)NC2(c3cnn[nH]3)CC2)c2n(c1C(=O)Nc1cccc(OC(F)(F)F)c1)CCC2 [Example 85, 7-(2-((1-(1H-1,2,3-triazol-5-yl)cyclopropyl)amino)-2-oxoacetyl)-6-methyl-N-(3-(trifluoromethoxy)phenyl)-2,3-dihydro-1H-pyrrolizine-5-carboxamide] | – | 294
CNC(=O)[C@@H](NC(=O)C(=O)c1c(C)c(C(=O)Nc2ccc(F)c(Cl)c2)n2c1CCC2)C(C)C [Example 128, (S)—N-(3-chloro-4-fluorophenyl)-6-methyl-7-(2-((3-methyl-1-(methylamino)-1-oxobutan-2-yl)amino)-2-oxoacetyl)-2,3-dihydro-1H-pyrrolizine-5-carboxamide] | – | 170
CC(C)(C)NC(=O)C(=O)c1c(Cl)c(C(=O)Nc2ccc(F)c(C#N)c2)n2c1CCC2 [Example 1, 7-(2-(tert-Butylamino)-2-oxoacetyl)-6-chloro-N-(3-cyano-4-fluorophenyl)-2,3-dihydro-1H-pyrrolizine-5-carboxamide] | – | 27.1
Cc1c(C(=O)C(=O)NC2(c3c[nH]nn3)CC2)c2n(c1C(=O)Nc1cccc(C(F)F)c1)CCC2 [Example 103, 7-(2-((1-(1H-1,2,3-triazol-4-yl)cyclopropyl)amino)-2-oxoacetyl)-N-(3-(difluoromethyl)phenyl)-6-methyl-2,3-dihydro-1H-pyrrolizine-5-carboxamide] | 8.5 | –
Cc1c(C(=O)C(=O)NC23CC(C(N)=O)(C2)C3)c2n(c1C(=O)Nc1ccc(F)c(Cl)c1)CCC2 [Example 106, 7-(2-((3-carbamoylbicyclo[1.1.1]pentan-1-yl)amino)-2-oxoacetyl)-N-(3-chloro-4-fluorophenyl)-6-methyl-2,3-dihydro-1H-pyrrolizine-5-carboxamide] | – | 124
